Key:
α-glucosidase = biological target: T1, α-glucosidase (Saccharomyces cerevisiae, UniProt P53341); test: α-glucosidase inhibition assay (in situ screen, IC50, Ki); assay type: biochemical, baker's yeast
T1 construct: purchased Sigma Co. (St. Louis, Mo.); host or cells: baker's yeast
Method: (§1) A mixture of iminocyclitol 4, a carboxylic acid (1 equiv, Scheme 2), diisopropyl ethylamine (DIEA, 2.2 equiv), and (1H-benzotriazole-1-yl)-1,1,3,3-tetramethyl-uronium hexafluorophosphate (HBTU, 1.1 equiv) in DMSO was shaken in 96-well microtiter plates for 5 h. Crude reaction products were randomly selected (30%) and analyzed by ESI-MS to ensure the presence of the desired products. The reaction mixture was diluted by appropriate buffer solutions and transferred to another 96-well microtiter plate for screening directly without any purification. […] Assuming the amide formation is complete, the percentage of inhibition relative to the control was calculated on the basis of absorbance at 405 nm for p-nitrophenol released from their corresponding substrates.
General procedure for coupling reactions and in situ screening. To a DMSO solution (10 μL) in each well of a 96-well microtiter plate was added each carboxylic acid (10 μL from a 10 mm stock solution in DMSO, 0.1 μmol), HBTU (10 μL from a 11 mm stock solution in DMSO, 1.1 equiv, 0.11 μmol), and DIEA (10 μL from a 22 mM stock solution in DMSO, 2.2 equiv, 0.22 μmol).
(§2) Enzyme assay. General procedure for the assay with various glycosidases. The initial velocities of the hydrolysis were measured spectrophotometrically at various concentrations of p-nitrophenyl-glycopyranoside (4 mM, 2 mM, 1 mM, 0.5 mM, 0.25 mM, 0.125 mM, 0.0625 mM) at 405 nm using Bio Assay Reader (Perkin Elmer HTS 7000 Plus) at 30° C. The obtained data were fitted into the Michaelis-Menten equation by using the Kaleida Graph program to determine the apparent Km values. […] The assays performed in wells of the microtiter plate contained either sodium phosphate buffer (50 mM, pH 7, for α- and β-glucosidase, α- and β-galactosidase, α- and β-mannosidase, α-fucosidase), or Mcllvaine's buffer (25 mM, pH 6, N-acetyl-β-hexosaminidase, jack bean).
(§3) The secondary plot was generated by plotting the apparent Km values as a function of inhibitor concentrations. Ki was calculated from the negative value of the x-intercept of this plot.

β-glucosidase = β-glucosidase inhibition assay (in situ screen, IC50, Ki); assay type: biochemical, almonds
Method: as §1, §2, §3

[1] = biological target: N-acetyl-β-hexosaminidase; test: N-acetyl-β-hexosaminidase inhibition assay (in situ screen, IC50, Ki); assay type: biochemical, jack bean
Method: as §1, §2, §3

[2] = biological target: human N-acetyl-β-hexosaminidases; conditions: previous study [30]; cited from earlier work
SARS-CoV = assay type: cell-based, SARS-CoV (H. K. strain); conditions: Vero E6 cells
[3] = test system: Japanese encephalitis virus (JEV); test: Anti-JEV cell-based assay (plaque forming assay, BHK-21 cells); conditions: M.O.I. = 0.1, virus production, BHK-21 cells; for IC50: read-out: JEV IC50; for IC90: read-out: JEV IC90
[4] = test system: dengue virus serotype 2 (DEN-2); test: Anti-DEN-2 cell-based assay (plaque forming assay, BHK-21 cells); conditions: M.O.I. = 0.1, virus production, BHK-21 cells; for IC50: read-out: DEN IC50; for IC90: read-out: DEN IC90
BHK-21 cells = test: XTT cell viability assay; assay type: cell-based; conditions: 10 μM, FIG. 2A
Method: XTT assay. To determine cell viability, a colorimetric XTT-based assay was performed (Cell Proliferation Kit II; Roche). BHK-21 cells in a 96-well plate were incubated with various concentrations of inhibitors for 2 days before the XTT labeling reagent was added to the culture medium. Cells were incubated at 37° C. for about 30 min and then read by an enzyme-linked immunosorbent assay (ELISA) reader at 450 nm (Molecular Devices).

[5] = test system: human chondrosarcoma cells; conditions: cell-associated fraction and culture supernatant; previous study; cited from earlier work
[6] = biological target: human placenta N-acetyl-β-hexosaminidase; test: Kinetic analysis of human placenta β-hexosaminidase; assay type: biochemical; conditions: substrate 4-MU-GNAc, pH 4.5
Method: Our strategy began with reductive amination of compound 5 with aldehydes of different lengths to give compounds 43-49 (FIG. 4). The intermediates were either deprotected under acidic conditions or hydrogenolysed to give primary amines 50-56. […] Thus, the inhibition studies of compounds 51-56 against human placenta N-acetyl-β-hexosaminidase were carried out. 4-Methylumbelliferyl N-acetyl-β-D-glucosaminide (4-MU-GNAc) was used as the substrate. The apparent Km and Vmax values for each substrate were calculated from the Lineweaver-Burke double reciprocal plot of [1/v]/[1/S]. The Ki values were determined from a replot of the Km (app) vs the inhibitor concentration. […] (FIG. 4). […] Compound 54 with a heptamine moiety was the strongest inhibitor. […] As the crystal structure of human β-hexosaminidase B is now avalible,^[43] its complex with 54 was modeled to reveal a narrow hydrophobic cleft in the active site, which is mainly enclosed by the side-chain groups of residues W424, Y450, […], L453 and the backbone of residues K425 and D426 (FIG. 5). The amino group at the terminal site is expected to be largely protonated when binding with the enzyme. It presumably forms a salt bridge with the secondary aglycon binding site of the enzyme.^[44] It appears that the alkyl linkage is long enough to bring the amine end near enough to have hydrogen-bond interactions with the backbone carbonyl of K425 and A447 and a possible ionic interaction with the carboxyl group of D426.
Kinetic analysis of human placenta β-hexosaminidase. Incubations were performed in a total volume of 200 μL. Unless otherwise stated, reaction mixtures contained 100 mM citrate buffer (pH 4.5), various amount of 4-methylumbelliferyl N-acetyl-β-D-glucosaminide, and various amounts of inhibitors with 0.02 mU/well of β-hexosaminidase. After incubation for 15 min at 30° C., the reaction was terminated by the addition of 0.5 M sodium glycine buffer, pH 10.5. Enzyme activity was measured by the release of 4-methylumbelliferone with the excitation wavelength of 360 nm and the emission wavelength of 460 nm.

[7] = test system: Japanese encephalitis virus (JEV); conditions: earlier work [16]; cited from earlier work
[8] = test system: dengue virus serotype 2 (DEN-2); conditions: earlier work [16]; cited from earlier work
[9] = reaction product at 20 μM, in situ screening

T1 sequence (P53341 whole entry): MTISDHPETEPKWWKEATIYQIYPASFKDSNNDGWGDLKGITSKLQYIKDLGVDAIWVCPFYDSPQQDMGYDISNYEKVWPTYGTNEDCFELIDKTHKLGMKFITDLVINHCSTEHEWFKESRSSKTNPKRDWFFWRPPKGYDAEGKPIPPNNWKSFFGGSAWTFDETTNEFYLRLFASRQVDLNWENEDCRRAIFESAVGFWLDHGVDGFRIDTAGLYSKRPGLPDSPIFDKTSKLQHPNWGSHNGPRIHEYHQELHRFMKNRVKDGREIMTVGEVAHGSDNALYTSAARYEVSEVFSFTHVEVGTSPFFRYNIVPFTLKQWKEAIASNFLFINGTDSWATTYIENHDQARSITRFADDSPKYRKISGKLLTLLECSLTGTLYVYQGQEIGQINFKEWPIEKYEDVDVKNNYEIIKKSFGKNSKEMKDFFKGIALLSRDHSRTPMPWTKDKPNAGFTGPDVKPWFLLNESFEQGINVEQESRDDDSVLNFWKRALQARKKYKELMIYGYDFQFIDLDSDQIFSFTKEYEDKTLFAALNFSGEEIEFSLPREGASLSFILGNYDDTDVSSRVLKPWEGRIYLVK

For `CC(=O)NC[C@H]1N[C@H](CO)[C@@H](O)[C@@H]1O` [Compound 5], the IC50 (α-glucosidase; pure compound) was 280 µM, the inhibition at 20 µM (α-glucosidase; [9]) was 12% and the IC50 (β-glucosidase; pure compound) was greater than 500 µM. The “β-glucosidase Inhibition (%)” value (β-glucosidase; [9]) was 20%, the IC50 ([1]; pure compound, read-out: N-acetyl-β-hexosaminidse IC50) was 0.16 µM and the “N-acetyl-β-hexosaminidse Inhibition (%)” value ([1]; reaction product at 30 μM, in situ screening) was 85%. The Ki ([1]; value in brackets, read-out: N-acetyl-β-hexosaminidse (Ki)) was 0.022 µM and the Ki [2] was 0.024 µM.
With `CCCCCCCCCCN1C(CO)C(O)C(O)C1CNC(=O)C1Cc2ccccc21` (stereo not drawn) [Compound 37] the IC50 (SARS-CoV) was 3.3 to 10 µM, the IC50 [3] was 9.6 ± 0.8 µM and the IC90 [3] was 18 ± 0.2 µM. For the same compound, the IC50 [4] was 4.7 µM and the IC90 [4] was 9.2 µM.
For `CCCCCCCCCCCCN1C(CO)C(O)C(O)C1CNC(=O)C1Cc2ccccc21` (stereo not drawn) [Compound 38], the “cytotoxicity (XTT assay, cell proliferation)” value (BHK-21 cells) was “low level of cytotoxicity”, the IC50 [3] was 7.6 ± 0.1 µM and the IC90 [3] was 9.7 ± 0.1 µM. For the same compound, the IC50 [4] was 6 ± 0.5 µM and the IC90 [4] was 9.1 ± 0.3 µM.
In the case of `CC(=O)NC[C@@H]1[C@@H](O)[C@H](O)[C@@H](CO)N1C` [Compound 42, (2R,3R,4R,5R)—N-methyl-2-(acetamido-methyl)-3,4-dihydroxy-5-(hydroxymethyl)pyrrolidine], the “effect on glycosaminoglycans (GAGs)” value [5] is given as “accumulation of glycosaminoglycans (GAGs) in the cell-associated fraction and a decrease in the release of GAGs into the culture supernatant” and the Ki [2] is given as 0.024 µM.
Compound `CC(=O)NCC1C(O)C(O)C(CO)N1CCCCCCCN` (stereo not drawn) [Compound 54] has a Ki [6] of 0.0026 µM.
With `CC(=O)NCC1C(O)C(O)C(CO)N1CCOCCOCCN` (stereo not drawn) [Compound 56] the Ki [6] was 0.06 µM.
For `CCCCCCN1C(CO)C(O)C(O)C1CNC(C)=O` (stereo not drawn) [Compound 57], the Ki [6] was 0.18 µM.
In the case of `CCCCCCCN1C(CO)C(O)C(O)C1CNC(C)=O` (stereo not drawn) [Compound 58], the Ki [6] is reported as 0.25 µM.
In the case of `CCCCCCCCN1C(CO)C(O)C(O)C1CNC(C)=O` (stereo not drawn) [Compound 59], the Ki [6] is reported as 0.16 µM.
In the case of `CCCCCCCCCN1C[C@H](O)[C@@H](O)[C@@H](O)[C@H]1CO` [NN-DGJ, N-nonyldeoxygalactonojirimycin], the “inhibition of JEV” value [7] is given as “did not inhibit” and the “inhibition of DEN-2” value [8] is given as “did not inhibit”.

Reference: patent US8273788B2, “Five-membered iminocyclitol derivatives as selective and potent glycosidase inhibitors: new structures for antivirals and osteoarthritis therapeutics” (Academia Sinica, Taiwan, priority 2005, dated 2012)
